Test results: the METLIN SMRT retention time set (Domingo-Almenara et al. 2019)

test: gradient 5% acetonitrile 3 min, to 50% in 2 min, to 85% in 15 min, held 3 min, 100 µL/min; details: column: Zorbax Extend-C18 2.1 x 50 mm; eluents: water / acetonitrile, 0.1% formic acid
How it was run: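 Pure standards were analyzed in mixtures of ~100 molecules using HPLC coupled to a quadrupole time-of-flight mass spectrometer, in both positive and negative ionization mode. Separation used a Zorbax Extend-C18 column (2.1 × 50 mm, 1.8 μm) at 100 μL/min, with water and acetonitrile each containing 0.1% formic acid. Dead and dwell volumes were 40 μL and 900 μL, and data were collected over 3 months. Retention time was read from computationally picked adduct peaks, each inspected manually.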

| RP-LC retention time | Structure (SMILES) |
| --- | --- |
| 562 s | CCN(CC)CCCNC(=O)c1cccn1-c1nnc(N2CCCC2)s1 |
| 878 s | O=C(NCCc1ccsc1)C(=O)Nc1ccccc1F |
| 802 s | COc1cccc(CC(=O)N2CCC3(CC2)N=C(c2ccccc2)NO3)c1 |
| 646 s | CCN1CCC(N(Cc2cccs2)C(=O)Nc2ccccc2C)CC1 |
| 802 s | O=C([C@@H]1C[C@H](Oc2ccccc2)CN1C(=O)c1n[nH]c2ccccc12)N1CCCC1 |
| 764 s | COc1ccc(Cl)cc1S(=O)(=O)NCCc1cn(C)c2ncccc12 |
| 919 s | CCNS(=O)(=O)c1ccc(Cl)c(-c2nnc(-c3ccccc3)o2)c1 |
| 619 s | Cc1ccc2oc(C(=O)NCC(c3ccccc3)N(C)C)cc(=O)c2c1 (configuration not stated) |
| 645 s | Cc1ccc2cc(CCC(=O)N(C)Cc3cn(C)nc3C)c(=O)[nH]c2c1 |
| 1310 s | Cc1ccc(-c2csc(Cc3nc(-c4ccc(F)cc4)no3)n2)cc1 |
| 737 s | CC(C)c1noc(-c2cc(=O)n(CC(=O)Nc3ccc(N(C)C)cc3)c3ccccc23)n1 |
| 814 s | Cc1noc(C2CN(C(=O)CCC3CCCC3)CC23CCOCC3)n1 (configuration not stated) |
| 658 s | COc1ccc(S(=O)(=O)N2CCC(C(=O)Nc3nnc(C4CCCO4)o3)CC2)cc1 (configuration not stated) |
| 684 s | O=C(NC1CCCCCC1)c1ccnc(N2CCNC(c3ccccc3)C2)c1 (configuration not stated) |
| 810 s | COc1cccc(C(=O)NCCCS(=O)(=O)N2CCN(c3ccccc3)CC2)c1OC |
| 991 s | CC(C)c1ccc(NC(=O)Cn2nc(C(=O)N3CCCC3)c3ccccc32)cc1 |
| 824 s | Cc1nnc(-c2ccc3ccn(CC(=O)NCCc4ccc(Cl)cc4)c3c2)o1 |
| 1030 s | Cc1cc(C)cc(NC(=O)Nc2nccn(-c3cccc(F)c3)c2=O)c1 |
| 752 s | Cc1ccc(C)c(Cn2nnc(C(=O)O)c2-c2ccccn2)c1 |

| RP-LC retention time | Structure (SMILES) |
| --- | --- |
| 712 s | Cc1cc2c(cc1S(=O)(=O)N1CCCC1C(=O)NCc1ccc(F)cc1)OCC(=O)N2 (configuration not stated) |
| 729 s | CC(=O)N1CCC(C(=O)NCc2c(-c3ccccc3)nc3sc(C)nn23)CC1 |
| 928 s | CCc1onc(C)c1C1CCCN1C(=O)c1cc(-c2ccc3c(c2)OCO3)on1 (configuration not stated) |
| 674 s | Cc1nnc(C(C)C)n1C1CC2CCC(C1)N2CC[C@H](NC(=O)C1CCC(F)(F)CC1)c1ccccc1 (some centres not stated) |
| 675 s | COc1cccc(-c2nc3cnccn3c2NCCC(=O)NC2CCCC2)c1 |
| 586 s | Cc1nnc(N2CCC(C(=O)NCCN(C)C)CC2)c2nn(-c3ccc(Cl)cc3)c(C)c12 |
| 714 s | CCOc1ccc(S(=O)(=O)N2CCN(c3cnn4c(C)nnc4c3)CC2)cc1 |
| 624 s | CCOC(=O)C(C(=O)NCCCN1CCOCC1)C1CCCCC1 (configuration not stated) |
| 859 s | CCc1ccc(NS(=O)(=O)c2cc3c(s2)CCN(C(=O)C2CCC2)C3)cc1 |
| 789 s | Cc1onc(-c2ccc(F)cc2F)c1C(=O)NC(C)C |
| 616 s | O=C(c1ccc2c(c1)nnn2CCN1CCOCC1)N1CCN(c2ccccc2)CC1 |
| 1130 s | CN(C)c1nc(Cl)nc2c1nc(Cl)n2C1CCCCO1 (configuration not stated) |
| 716 s | CCN1CCCn2cc(S(=O)(=O)Nc3cccc(F)c3)cc2C1=O |
| 745 s | CCN1C(=O)c2cccnc2Sc2cc(NC(=O)C3CCC3)ccc21 |
| 768 s | Cc1ccsc1C(=O)N1CCC2(CC1)NC(=O)N(Cc1ccccc1)C2=O |
| 1390 s | CCCCC(CC)C(=O)Nc1nc(-c2ccc(C(C)C)cc2)cs1 (configuration not stated) |
| 595 s | CC1CCN(c2cc(N3CCN(C)CC3)ccc2NC(=O)c2cc(C#N)c[nH]2)CC1 |
| 692 s | CCCn1cnc2cc(CNC(=O)COc3ccc(Cl)cc3C)ccc21 |
